{"source": "patent US20260021046A1", "about": "“LIPID NANOPARTICLE AND PHARMACEUTICAL COMPOSITION” (NATIONAL UNIVERSITY CORPORATION HOKKAIDO UNIVERSITY, priority 2022, published 2026)", "key": {"[1]": {"assay": "Average particle size, PDI, zeta potential (dynamic light scattering) and RNA encapsulation efficiency (RiboGreen) of lipid nanoparticles", "format": "physicochemical", "method": "The average particle size, particle size distribution, and zeta potential of the lipid nanoparticles were measured using a Zetasizer Nano ZS (Malvern Instruments Ltd, UK) by dynamic light scattering and the form of lipid nanoparticle was measured using a transmission electron-microscope as described in NPL 12. The efficiency of mRNA encapsulation was estimated by RiboGreen fluorometry as described in NPL 13. Although the respective values vary depending on the type of pH-sensitive cationic lipid, the composition of the lipids constituting the lipid nanoparticles, the preparation conditions of the lipid nanoparticles, and the like, the average particle size of the lipid nanoparticles was in the range of 80 to 350 nm, the PDI was in the range of 0.05 to 0.4, the zeta potential was in the range of −16 to +5 mV, and the efficiency of mRNA encapsulation was 75 to 95%. • [NPL 12] Mahmoud A. Younis, et al., “A Multifunctional Lipid-Based Nanodevice for the Highly Specific Codelivery of Sorafenib and Midkine siRNA to Hepatic Cancer Cells”, Molecular Pharmaceutics, Vol. 16, pp. 4031-4044 • [NPL 13] Mahmoud M. Abd Elwakil, et al., “Engineered &-decalactone lipomers bypass the liver to selectively in vivo deliver mRNA to the lungs without targeting ligands”, Materials Horizons, Vol. 8, pp. 2251-2259\nThe average particle size, particle size distribution, and zeta potential of the lipid nanoparticles were measured in the same manner as in Example 1 to estimate the efficiency of SMO-siRNA encapsulation. The relationship between the flow rate ratio of the aqueous phase to the organic phase, the average particle size, particle size distribution, zeta potential, and SMO-siRNA encapsulation efficiency of the lipid nanoparticles prepared at the same flow rate ratio when CL15H6 was used as the pH-sensitive cationic lipid is shown in Table 3 below. In the subsequent experiments, lipid nanoparticles were prepared at a ratio of 4:1 (aqueous phase: organic phase), which provided the highest encapsulation efficiency, the smallest average particle size, and the smallest PDI."}, "hepatic stellate cells": {"system": "hepatic stellate cells", "assay": "In vivo mRNA delivery to hepatic stellate cells in TAA-induced liver fibrosis model mice", "conditions": "24 hours", "method": "Thioacetamide (TAA (TCI, Japan))-induced liver fibrosis models were generated in 4-week-old male BALB/c mise (Sankyo laboratories, Japan). Specifically, TAA dissolved in saline was injected intraperitoneally at an amount of 200 mg/kg of TAA per kg of body weight. This was repeated every 3 days for a total of 10 times. The livers of the liver fibrosis model mice were examined by histopathology and hydroxyproline quantitative assay (Cell Biolabs Inc, USA), and the activation of hepatic stellate cells (HSCs) was confirmed by quantitative real-time polymerase chain reaction (qRT-PCR).\nThe lipid nanoparticles prepared by using CL15A6 encapsulated the above-described EGFP mRNA or firefly luciferase (FLuc) mRNA (TriLink BioTechnologies, USA), and the lipid nanoparticles were administered intravenously to mice via the tail vein so that the amount of RNA per kg of body weight was 1 mg/kg. Twenty-four hours after the administration, hepatic stellate cells and hepatocytes were collected from the livers of the mice as described in NPL 15. For EGFP mRNA, FACS was used to evaluate delivery efficiency and transfection efficiency, and for FLuc mRNA, the luciferase assay was used to evaluate delivery efficiency as described in NPL 16. • [NPL 15] Ingmar Mederacke, et al., “High-yield and high-purity isolation of hepatic stellate cells from normal and fibrotic mouse livers”, Nature Protocols, Vol. 10, pp. 305-315 • [NPL 16] Ikramy A. Khalil, et al., “Synergism between a cell penetrating peptide and a pH-sensitive cationic lipid in efficient gene delivery based on double-coated nanoparticles”, Journal of Controlled Release, Vol. 275, pp. 107-116\nFirst, the microchannel device (iLiNP device) was operated under different conditions to prepare lipid nanoparticles with different average particle sizes. Specifically, lipid nanoparticles with an average particle size of more than 150 nm (e.g., 180 nm), lipid nanoparticles with an average particle size of 100 to 150 nm (e.g., 130 nm), and lipid nanoparticles with an average particle size of less than 100 nm (e.g., 90 nm) were prepared. The prepared lipid nanoparticles were administered intravenously to mice with liver fibrosis, and the mRNA delivery efficiency and transfection efficiency with respect to hepatic stellate cells and hepatocytes were evaluated 24 hours later.\nNext, lipid nanoparticles with different nitrogen/phosphate (N/P) ratios were prepared by mixing a lipid composition containing CL15A6 with mRNA at different ratios. Specifically, lipid nanoparticles with N/P ratios of 4, 8, 12, 16, and 20 were prepared. The prepared lipid nanoparticles were intravenously administered to mice with liver fibrosis, and the mRNA delivery efficiency and transfection efficiency with respect to hepatic stellate cells and hepatocytes were evaluated 24 hours later.\nNext, lipid nanoparticles containing different types of helper phospholipids were prepared by changing the type of helper phospholipid in the lipid composition containing CL15A6. As the unsaturated phosphatidylethanolamine, 1,2-dioleoyl-sn-glycero-3-phosphoethanolamine (DOPE) was used. As the unsaturated phosphatidylcholine, 1,2-dioleoyl-sn-glycero-3-phosphocholine (DOPC) was used. As the saturated phospholipid, 1,2-distearoyl-sn-glycero-3-phosphocholine (DSPC) was used. The prepared lipid nanoparticles were intravenously administered to mice with liver fibrosis, and the mRNA delivery efficiency and transfection efficiency with respect to hepatic stellate cells and hepatocytes were evaluated 24 hours later.\nNext, lipid nanoparticles containing helper phospholipid (DOPE) at different molar percentages were prepared by changing the molar ratio of the helper phospholipid (DOPE). The prepared lipid nanoparticles were intravenously administered to mice with liver fibrosis, and the mRNA delivery efficiency and transfection efficiency with respect to hepatic stellate cells and hepatocytes were evaluated 24 hours later. […]"}, "[2]": {"system": "activated hepatic stellate cell line LX-2", "assay": "EGFP mRNA delivery and transfection screening by FACS", "format": "cell-based", "conditions": "LX-2 cells; EGFP mRNA lipid nanoparticles, 250 ng mRNA per well", "method": "Fourteen types of lipid nanoparticles prepared were screened with activated hepatic stellate cell line LX-2 (Merck (Germany) and hepatocyte line FL83B (ATCC, USA).\nTwenty-four hours prior to the experiment, cells were seeded in 6-well plates at 1×10^5 cells/well and incubated at 37° C. The medium was aspirated and the cells were washed with (−) PBS and then treated with lipid nanoparticles encapsulating EGFP mRNA (TriLink BioTechnologies, USA) in 1.5 ml of growth medium for 24 hours. The amount of mRNA per well was 250 ng. Cells were then washed with (−) PBS and incubated in fresh medium for an additional 21 hours. The median fluorescence intensity of EGFP and the percentage of transfected cells were evaluated by fluorescence activated cell sorting (FACS) using a flow cytometer (Cytoflex, Beckman Coulter, USA)."}, "[3]": {"conditions": "lipid nanoparticles CL15A6:DOPE:cholesterol:DMG-PEG2K 5:3:2:0.3"}, "[4]": {"conditions": "CL15A6 lipid nanoparticles iv, DMG-PEG2K 3 to 5 mol %"}, "[5]": {"conditions": "CL15A6 lipid nanoparticles, 1 mg/kg RNA iv, when particle size was reduced (>150 nm, 100 to 150 nm, <100 nm)"}}, "data": [{"smiles": "CCCCC/C=C\\C/C=C\\CCCCCCCCC(O)(CCCCCCCC/C=C\\C/C=C\\CCCCC)CCCCOC(=O)C1CCN(C)CC1", "note": "[CL15A6, (14z,17z)-5-hydroxy-5-((9z,12z)-octadeca-9,12-dien-1-yl)tricosa-14,17-dien-1-yl 1-methylpiperidine-4-carboxylate]", "values": [{"measurement": "particle size", "setting": "[1]; CL15A6 mRNA lipid nanoparticles, DMG-PEG2K 1.5 mol %", "value": 100, "unit": "nm"}, {"measurement": "Average particle size", "setting": "[1]; CL15A6 mRNA lipid nanoparticles, N/P ratio increased from 4 to 8", "value": 80, "unit": "nm"}, {"measurement": "Average particle size", "setting": "[1]; [3]", "value": 80, "unit": "nm"}, {"measurement": "PDI", "setting": "[1]; [3]", "value": "< 0.1"}, {"measurement": "mRNA delivery efficiency", "setting": "hepatic stellate cells; CL15A6 lipid nanoparticles iv, DMG-PEG2K 1.5 mol %", "value": "decreased"}, {"measurement": "efficiency of mRNA delivery to hepatic stellate cells", "setting": "hepatic stellate cells; [4]", "value": "high"}, {"measurement": "hepatic stellate cells transfected in vivo", "setting": "hepatic stellate cells; [4]", "value": "≥ 80", "unit": "%"}, {"measurement": "delivery of mRNA to hepatic stellate cells", "setting": "hepatic stellate cells; CL15A6 lipid nanoparticles iv, DOPE 20 to 30 mol %", "value": "significantly improved"}, {"measurement": "delivery of mRNA to hepatic stellate cells", "setting": "hepatic stellate cells; CL15A6 lipid nanoparticles iv, DOPE 40 mol %", "value": "reduced"}, {"measurement": "delivery of mRNA to hepatic stellate cells", "setting": "hepatic stellate cells; CL15A6 lipid nanoparticles iv, N/P ratio increased from 4 to 8", "value": "significantly improved"}, {"measurement": "mRNA delivery efficiency", "setting": "hepatic stellate cells; CL15A6 lipid nanoparticles iv, N/P ratio increased from 16 to 20", "value": "decreased"}, {"measurement": "mRNA delivery to hepatic stellate cells", "setting": "hepatic stellate cells; CL15A6 lipid nanoparticles iv, helper phospholipid DOPE compared to DOPC and DSPC", "value": "significantly improved"}, {"measurement": "mRNA delivery efficiency to hepatic stellate cells", "setting": "hepatic stellate cells; [5]", "value": "linearly improved"}, {"measurement": "transfection efficiency of hepatic stellate cells", "setting": "hepatic stellate cells; [5]", "value": "linearly improved"}, {"measurement": "mRNA delivery efficiency (median fluorescence intensity of EGFP)", "setting": "[2]", "value": "high and promising"}, {"measurement": "transfection efficiency (percentage of transfected cells)", "setting": "[2]", "value": "promising"}]}]}
